In paper PMC7473970, “Preformulation Studies of a Stable PTEN-PDZ Lipopeptide Able to Cross an In Vitro Blood-Brain-Barrier Model as a Potential Therapy for Alzheimer’s Disease” (Pharmaceutical Research, 2020):
Residues, ends and D or L forms follow the SMILES beside them.

Assays:
[1] = In vitro stability in 50% v/v mouse plasma; assay type: in vitro ADME; conditions: 37°C, HPLC-UV 220 nm, one phase decay, least square fit, n = 3
Experimental: CD-1 male mice (7 weeks old: Charles River Laboratories) were sacrificed with CO2, and blood was collected in K3E EDTA spray-coated vacutainers and kept on ice prior to centrifugation at 3000 rpm for 15 min at 4°C (Heraeus Multifuge 3sf). Mouse plasma samples were stored at −80°C before use in stability studies. Study was approved by the University of Portsmouth Animal Welfare and Ethical Review Body (UoP AWERB body, 817).
For testing, the plasma was diluted (1:1) in PBS without phenol and pre-warmed to 37°C. Peptides stocks (5 mM in DMSO) were prepared and maintained at −20°C before performing the stability studies. Peptide stock solutions (120 μL) were added to pre-warmed diluted plasma (50% v/v, 1080 μL) and maintained at 37°C with agitation (100 rpm: Grant Aqua Waterbath, Royston, UK). Samples (80 μL) were taken at 0, 3, 6,9, 15, 30, 45, 60, 90, 120, 180, 240, 360 and 1440 min, diluted with ice-cold acetonitrile (80 μL), vortexed and left in −80°C at least overnight to favor maximal protein precipitation. The samples were then vortexed again for 15 min (SciQuip microplate shaker, Shropshire, UK), centrifuged in a Thermo Sci Jouan B4i Centrifuge (Hemel Hampstead, UK) and the supernatant was transferred to an HPLC vial (200 μL).
(§1) The samples were analyzed at 40°C on a Phenomenex Lichrosorb RP8 C8 column (4.0 mm × 250 mm, 5 μm), using the gradient elution method on an Agilent HPLC system (Agilent Technologies, Cheadle, UK) equipped with an 1100 series degasser, quaternary pump, autosampler, and column heater, and attached to an Agilent 1200 series PDA detector and a 1250 series fluorescent detector. The flow rate was set at 1.2 mL min^-1, and the injection volume was set at 40 μL, while detection was performed at 220 nm. The mobile phase was a mixture of mobile phase A (0.1% TFA in water) and phase B (0.08% TFA in acetonitrile), and in the first 5 min, the mobile phase was an 8:2 ratio of A:B (v/v) and from 5 to 15 min the percentage of B was raised from 8:2 to 1:9 (v/v). Linear calibration curves were constructed for both peptides between 0.1–100 μg.mL^−1. The retention time for the human Lau–PTEN-PDZ, mouse Lau–PTEN-PDZ, human Myr–PTEN-PDZ, and mouse Myr–PTEN-PDZ was 12.03, 11.60, 13.68, and 13.91, respectively.

[2] = In vitro stability in 50% brain homogenate; assay type: in vitro ADME, mouse; conditions: 37°C, HPLC-UV 220 nm, one phase decay, least square fit, n = 3
Experimental: as §1
The liver and brain of the mice were excised from […] CD-1 male mice (7 weeks-old: Charles River Laboratories) sacrificed with CO2, and the tissue was frozen immediately with liquid nitrogen prior to storage at −80°C. The liver and brain tissue were thawed and homogenized on ice in PBS (2 mL/g of tissue) using a glass 3 mL tissue homogenizer (20 strokes per sample), and the liver and brain homogenates were centrifuged (Heraeus Multifuge 3sf, Fisher Scientific, Basingstoke, UK) at 4300 g for 60 min at 4°C and at 3000 g for 20 min at 4°C, respectively. The supernatant was stored at −80°C, diluted 1:1 (v/v) with PBS (1x, pH 7.4), and used in stability studies. Peptides stocks (5 mM in DMSO) were prepared and maintained at −20°C prior to performing stability studies. These stock solutions (120 μL) were added to the diluted pre-warmed (37°C) liver or brain homogenate (50% v/v, 1080 μL) with agitation (100 rpm: Grant Aqua Waterbath), and samples (80 μL) were taken at 0, 5, 10, 15, 30, 45, 60, 90, 120, 180, 240, 360 and 1440 min, and diluted with ice-cold acetonitrile (80 μL). Samples were vortexed and left at −80°C at least overnight to allow for maximum protein precipitation, the samples were vortexed again for 15 min, centrifuged and the supernatant was analyzed by HPLC as described above.
The total protein concentration in the homogenates was determined using the Bradford protein assay ([7],[15]) and BSA as a standard. Ten stock solutions of BSA were prepared in PBS between 0.1–1 mg mL^−1, and 40 μL of each of the diluted stocks were added to 1.2 mL of Bradford reagent and incubated at room temperature for 5 min. The absorbance was recorded at 595 nm using a Multiskan GO spectrophotometer and the SkanIt software (Thermo Scientific, Paisley, UK). A linear calibration curve was obtained in this range that was used to extrapolate the protein content of 1:100 v/v stock solutions of 50% mouse plasma, liver, and brain homogenates diluted in PBS.

[3] = 50% w/v mouse brain homogenate in PBS pH 7.4

With `CCCCCCCCCCCCCC(=O)N[C@@H](CCC(N)=O)C(=O)N[C@@H](Cc1c[nH]cn1)C(=O)N[C@@H](CO)C(=O)N[C@@H](CCC(N)=O)C(=O)N[C@H](C(=O)N[C@H](C(=O)N[C@@H](CCCCN)C(=O)N[C@H](C(=O)O)C(C)C)[C@@H](C)O)[C@@H](C)CC` [Mouse Myr-PTEN-PDZ] (HELM PEPTIDE1{[CCCCCCCCCCCCCC(=O)[*:2]].Q.H.S.Q.I.T.K.V}$$$$V2.0) the k ([1]; 50% v/v CD-1 mouse plasma (K3 EDTA) in PBS, 120 μL of 5 mM DMSO stock in 1080 μL, 100 rpm, 0-1440 min) was 0.80 h⁻¹, the “t1/2 (h)” value ([1]; 50% v/v mouse plasma in PBS) was 0.87 h and the “t1/2 (min)” value ([1]; 50% v/v mouse plasma in PBS) was 52.16 min. For the same molecule, the k ([2]; 50% w/v CD-1 mouse brain homogenate in PBS pH 7.4, 120 μL of 5 mM DMSO stock in 1080 μL, 100 rpm, 0-1440 min) was 2.71 h⁻¹, the “t1/2 (h)” value [2, 3] was 0.25 h and the “t1/2 (min)” value [2, 3] was 15.32 min.
